Converted amounts (≈) assume the structure as drawn. The source made the active and inactive calls. No cut-off for these calls is given here.
Tests used:
Influenza A virus [1] = experiment: Antiviral activity against influenza A virus NWS/H0N1 infected in BHK cells at 1 mg/ml by agar diffusion assay; format: functional; conditions: read-out: IZ
Staphylococcus aureus [2] = experiment: Antibacterial activity against Staphylococcus aureus 1517; format: functional
Staphylococcus aureus [3] = experiment: Antibacterial activity against Staphylococcus aureus Russel; format: functional
[4] = Cytotoxicity against BHK cells; format: cell-based, Mesocricetus auratus; conditions: hamster
Influenza A virus [5] = experiment: Antiviral activity against influenza A virus NWS/H0N1 infected in BHK cells by agar diffusion assay; format: functional
Staphylococcus aureus [6] = experiment: Antibacterial activity against Staphylococcus aureus Oxford; format: functional
[7] = Cytotoxicity against human HeLa cells by neutral red assay; format: cell-based
Coxsackievirus B1 [8] = experiment: Antiviral activity against Coxsackievirus B1 infected in human HeLa cells at 1 mg/ml by agar diffusion assay; format: functional; conditions: Enterovirus B; read-out: IZ
Enterococcus faecalis [9] = experiment: Antibacterial activity against Streptococcus faecalis I; format: functional
Bacillus subtilis [10] = experiment: Antibacterial activity against Bacillus subtilis; format: functional
Streptococcus pyogenes [11] = experiment: Antibacterial activity against Streptococcus pyogenes CN10; format: functional
Coxsackievirus B1 [12] = experiment: Antiviral activity against Coxsackievirus B1 infected in human HeLa cells by agar diffusion assay; format: functional
Human alphaherpesvirus 1 = experiment: Antiviral activity against Herpes simplex virus 1 infected in chick embryo fibroblasts by plaque reduction assay; format: functional, organism-based
Bacillus subtilis [13] = experiment: Antibacterial activity against Bacillus subtilis up to 200 ug/ml; format: functional, organism-based
Coxsackievirus B1 [14] = experiment: Antiviral activity against Coxsackievirus B1 infected in human HeLa cells up to 100 ug/ml by agar diffusion assay; format: functional, organism-based
Staphylococcus aureus [15] = experiment: Antibacterial activity against Staphylococcus aureus Russel up to 200 ug/ml; format: functional, organism-based
HeLa = experiment: Cytotoxicity against human HeLa cells up to 100 ug/ml; format: cell-based
Streptococcus pyogenes [16] = experiment: Antibacterial activity against Streptococcus pyogenes CN10 up to 200 ug/ml; format: functional, organism-based
Staphylococcus aureus [17] = experiment: Antibacterial activity against Staphylococcus aureus 1517 up to 200 ug/ml; format: functional, organism-based
[18] = Cytotoxicity against BHK cells up to 100 ug/ml by carbol fuschin assay; format: cell-based, Mesocricetus auratus; conditions: hamster
Influenza A virus [19] = experiment: Antiviral activity against influenza A virus NWS/H0N1 infected in BHK cells up to 100 ug/ml by agar diffusion assay; format: functional, organism-based
Staphylococcus aureus [20] = experiment: Antibacterial activity against Staphylococcus aureus Oxford up to 200 ug/ml; format: functional, organism-based
Enterococcus faecalis [21] = experiment: Antibacterial activity against Streptococcus faecalis I up to 200 ug/ml; format: functional, organism-based

| SMILES | zone of inhibition at 1000 µg/mL (Influenza A virus [1]) [mm] | MIC (Staphylococcus aureus [2]) [µg/mL] | MIC (Staphylococcus aureus [3]) [µg/mL] | MCC [4] [µg/mL] | PDD50 (Influenza A virus [5]) [µg/mL] | MIC (Staphylococcus aureus [6]) [µg/mL] | MCC [7] [µg/mL] | zone of inhibition at 1000 µg/mL (Coxsackievirus B1 [8]) [mm] | MIC (Enterococcus faecalis [9]) [µg/mL] | MIC (Bacillus subtilis [10]) [µg/mL] | MIC (Streptococcus pyogenes [11]) [µg/mL] | PDD50 (Coxsackievirus B1 [12]) [µg/mL] | Activity (Human alphaherpesvirus 1) | also measured |
| --- | --- | --- | --- | --- | --- | --- | --- | --- | --- | --- | --- | --- | --- | --- |
| CNC1=NC(=O)[C@H]([C@H](C)c2c[nH]c3ccccc23)S1 (racemic) | 36 | 2 (≈ 7.32 µM) | 2 (≈ 7.32 µM) | 10 | 3 | 2 (≈ 7.32 µM) | 30 | 29 | 2 (≈ 7.32 µM) | 20 (≈ 73.2 µM) | 200 (≈ 732 µM) | 5 |  |  |
| NC(=O)c1ncn([C@@H]2O[C@H](CO)[C@@H](O)[C@H]2O)n1 [RIBAVIRIN] | 28 |  |  | > 100 | 1 |  | > 100 | 0 |  |  |  | >100 |  |  |
| CNC1=NC(=O)C(Cc2c[nH]c3ccccc23)S1 (racemic) | 14 | 20 (≈ 77.1 µM) | 20 (≈ 77.1 µM) | 30 | 10 | 20 (≈ 77.1 µM) | > 100 | 9 | 20 (≈ 77.1 µM) | > 200 | 200 (≈ 771 µM) | 100 | inactive |  |
| CCNC1=NC(=O)[C@H]([C@H](C)c2c[nH]c3ccccc23)S1 (racemic) | 34 | 20 (≈ 69.6 µM) | 20 (≈ 69.6 µM) | 10 | 5 | 20 (≈ 69.6 µM) | > 100 | 16 | 20 (≈ 69.6 µM) | 200 (≈ 696 µM) | 200 (≈ 696 µM) | 10 | inactive |  |
| C/N=C1/S[C@@H]([C@H](C)c2c[nH]c3ccccc23)C(=O)N1C (racemic) |  | 2 (≈ 6.96 µM) | 2 (≈ 6.96 µM) | 4 | 1.2 | 2 (≈ 6.96 µM) | 12 |  | 2 (≈ 6.96 µM) | 20 (≈ 69.6 µM) | 200 (≈ 696 µM) | 3 | inactive | Activity (Bacillus subtilis [13]): inactive; Activity (Coxsackievirus B1 [14]): inactive; Activity (Staphylococcus aureus [15]): inactive; Activity (HeLa): Non-toxic; Activity (Streptococcus pyogenes [16]): inactive; Activity (Staphylococcus aureus [17]): inactive; Activity [18]: Non-toxic; Activity (Influenza A virus [19]): inactive; Activity (Staphylococcus aureus [20]): inactive; Activity (Enterococcus faecalis [21]): inactive |
| C[C@H](c1c[nH]c2ccccc12)[C@@H]1SC(NCCO)=NC1=O (racemic) | 8 | 200 (≈ 659 µM) | 200 (≈ 659 µM) | 100 | >30 | 200 (≈ 659 µM) | > 100 | 20 | 200 (≈ 659 µM) | > 200 | 200 (≈ 659 µM) | 16 | inactive |  |

Source: ChEMBL document CHEMBL3244280, “Thiazolinone analogues of indolmycin with antiviral and antibacterial activity” (J Med Chem, 1978)
